Assay results: US7531545B2, “2-amino-3,4-dihydro-pyrido[3,4-d]pyrimidine derivatives useful as inhibitors of β-secretase (BACE)” (Janssen Pharmaceutica, N.V., priority 2005, dated 2009)
pIC50: −log10 of the molar value. Values joined by “and” are separate entries in the source; they are usually repeats but may differ in a detail not shown here. Equal values may be shown once.

Biological target: human BACE-1 (Homo sapiens, UniProt P56817)
Test: CEREP BACE Inhibition Assay
Format: biochemical
Conditions: recombinant enzyme; for inhibition at 1 µM: read-out: % Inhibition @ 1.0 μM; for pIC50: read-out: IC50
Procedure: More specifically the assay, run at 50 μL in a 96 well plate, evaluated the effect of test compound on the activity of the human BACE-1 quantified by measuring the formation of Mca-S-E-V-N-L-NH2 from […], using a recombinant enzyme. The test compound, reference compound or water (control) were added to a buffer containing 0.09 M sodium acetate (pH 4.5) and 0.25 μg BACE-1. Compound interference with the fluorimetric detection method due to autofluorescence was then checked by measurements at the wavelengths defined to evaluate the enzyme activity. […] For control basal measurement, the substrate was omitted from the reaction mixture. […] The standard inhibitory reference compound was OM99-2, which was tested in each experiment at several concentrations to obtain an inhibition curve from which its IC50 value was calculated.

[1] = percent inhibition of the control activity

Chain of human BACE-1 (P56817 46-501): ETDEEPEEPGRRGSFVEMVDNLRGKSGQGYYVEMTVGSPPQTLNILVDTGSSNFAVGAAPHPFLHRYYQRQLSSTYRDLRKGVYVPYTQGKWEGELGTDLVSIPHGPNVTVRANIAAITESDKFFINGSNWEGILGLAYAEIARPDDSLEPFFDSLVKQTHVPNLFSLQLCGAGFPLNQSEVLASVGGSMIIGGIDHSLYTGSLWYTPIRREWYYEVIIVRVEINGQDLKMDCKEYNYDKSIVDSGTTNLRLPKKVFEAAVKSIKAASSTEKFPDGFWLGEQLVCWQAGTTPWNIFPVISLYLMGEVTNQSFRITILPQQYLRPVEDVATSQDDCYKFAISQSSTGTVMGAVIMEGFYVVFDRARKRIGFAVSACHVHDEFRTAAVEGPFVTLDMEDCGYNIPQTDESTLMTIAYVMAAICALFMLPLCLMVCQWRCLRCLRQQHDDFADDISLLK

`CC(C)CN(C)CCC[C@@H](C1CCCCC1)N1Cc2cc(Oc3ccccc3)ncc2N=C1N` [Compound 209] showed an inhibition at 1 µM [1] of 93% and a pIC50 of 6.92.

`CC(C)(CO)NC(=O)CC[C@@H](C1CCCCC1)N1Cc2cc(Oc3ccccc3)ncc2N=C1N` [Compound 180] was tested, and the inhibition at 1 µM [1] was 99% and the pIC50 was 7.04.

With `CC(C)(C)OCCN(Cc1ccccn1)C(=O)CC[C@@H](C1CCCCC1)N1Cc2cc(Oc3ccccc3)ncc2N=C1N` [Compound 162] the “% Inhibition @ 1.0 μM” value [1] was 99% and the pIC50 was 7.05.

`CC(C)[C@H](CCC(=O)N[C@@H](COC(C)(C)C)c1nnnn1Cc1ccccc1)N1Cc2cc(Oc3ccccc3)ncc2N=C1N` [Compound 95] gave an inhibition at 0.3 µM [1] of 86% and a pIC50 of 6.68.

For `NC1=Nc2cnc(Oc3ccccc3)cc2CN1[C@@H](CN1C(=O)NC2(CCCCC2)C1=O)C1CCCCC1` [Compound 229, 3-[2-(2-Amino-6-phenoxy-4H-pyrido[3,4-d]pyrimidin-3-yl)-2-(R)-cyclohexyl-ethyl]-1,3-diaza-spiro[4.5]decane-2,4-dione], the inhibition at 1 µM [1] was 78% and the pIC50 was 6.41.

Work on `NC1=Nc2cnc(Oc3ccccc3)cc2CN1[C@@H](CCC(=O)N(Cc1nnn[nH]1)C1CCCCC1)C1CCCCC1` [Compound 77, 4-(2-Amino-6-phenoxy-4H-pyrido[3,4-d]pyrimidin-3-yl)-4-(S)—N-dicyclohexyl-N-(1H-tetrazol-5-ylmethyl)-butyramide] yielded an inhibition at 0.3 µM [1] of 78% and a pIC50 of 6.48.

`C[C@@H](CO)NC(=O)[C@@H](COC(C)(C)C)NC(=O)CC[C@@H](C1CCCCC1)N1Cc2cc(Oc3ccccc3)ncc2N=C1N` [Compound 108] was tested, and the inhibition at 0.3 µM [1] was 94% and the pIC50 was 6.85.

For `CN(CCO)C(=O)CC[C@@H](C1CCCCC1)N1Cc2cc(Oc3ccccc3)ncc2N=C1N` [Compound 171], the inhibition at 1 µM [1] was 77% and the pIC50 was 6.57.

`NC1=Nc2cnc(Oc3ccccc3)cc2CN1[C@@H](CCC(=O)NCC1CC1)C1CCCCC1` [Compound 212] was tested, and the inhibition at 1 µM [1] was 99% and the pIC50 was 7.12.

`CC(C)(C)CCN(CCNS(N)(=O)=O)C(=O)CC[C@@H](C1CCCCC1)N1Cc2cc(Oc3ccccc3)ncc2N=C1N` [Compound 147, 4-(2-Amino-6-phenoxy-4H-pyrido[3,4-d]pyrimidin-3-yl)-4-(S)-cyclohexyl-N-(3,3-dimethyl-butyl)-N-(2-sulfamido-ethyl)-butyramide] gave an inhibition at 1 µM [1] of 100% and a pIC50 of 6.74.

`NC1=Nc2cnc(Oc3ccccc3)cc2CN1[C@@H](CCC(=O)N1CCC[C@H]1CO)C1CCCCC1` [Compound 143] showed an inhibition at 1 µM [1] of 65% and a pIC50 of 5.92.

For `COCC(=O)NC1=Nc2cnc(Oc3ccccc3)cc2CN1C(Cn1cc(C(C)(C)C)nn1)C1CCCCC1` (stereo in doubt) [Compound 247, N-{3-[2-(4-tert-Butyl-[1,2,3]triazol-1-yl)-1-(S)-cyclohexyl-ethyl]-6-phenoxy-3,4-dihydro-pyrido[3,4-d]pyrimidin-2-yl}-2-methoxy-acetamide], the inhibition at 1 µM [1] was 3%.

`CC(C)CN(CCN1CCOCC1)C(=O)CC[C@@H](C1CCCCC1)N1Cc2cc(Oc3ccccc3)ncc2N=C1N` [Compound 189] gave an inhibition at 1 µM [1] of 99% and a pIC50 of 6.85.

Work on `CC(C)(CO)CNC(=O)CC[C@@H](C1CCCCC1)N1Cc2cc(Oc3ccccc3)ncc2N=C1N` [Compound 179] yielded an inhibition at 1 µM [1] of 100% and a pIC50 of 7.09.

`CC(C)CN(CCC[C@@H](C(C)C)N1Cc2cc(Oc3ccccc3)ncc2N=C1N)CCN1CCOCC1` [Compound 193] gave an inhibition at 1 µM [1] of 60% and a pIC50 of 7.27.

In the case of `Cn1c(CN(CCC(C)(C)C)C(=O)CC[C@@H](C2CCCCC2)N2Cc3cc(Oc4ccccc4)ncc3N=C2N)nc(Cl)c1Cl` [Compound 172], the inhibition at 1 µM [1] was 99% and the pIC50 was 6.77.

`CC(C)(C)c1cn(C[C@@H](C2CCCCC2)N2Cc3cc(Oc4ccccc4)ncc3N=C2NN)nn1` [Compound 245, {3-[2-(4-tert-Butyl-[1,2,3]triazol-1-yl)-1-(R)-cyclohexyl-ethyl]-6-phenoxy-3,4-dihydro-pyrido[3,4-d]pyrimidin-2-yl}-hydrazine] was tested, and the inhibition at 10 µM (10.0 μM, percent inhibition of the control activity) was 29%.

`CC(C)[C@H](CCC(=O)N[C@H](C)CO)N1Cc2cc(Oc3ccccc3)ncc2N=C1N` [Compound 175] was tested, and the inhibition at 1 µM [1] was 93% and the pIC50 was 7.01.

Work on `NC1=Nc2cnc(Oc3ccccc3)cc2CN1[C@@H](CCC(=O)N(CCOCCOCCOCCO)C1CCCCC1)C1CCCCC1` [Compound 176, 4-(2-Amino-6-phenoxy-4H-pyrido[3,4-d]pyrimidin-3-yl)-4-(S),N-dicyclohexyl-N-(2-{2-[2-(2-hydroxy-ethoxy)-ethoxy]-ethoxy}-ethyl)-butyramide] yielded an inhibition at 1 µM [1] of 101% and a pIC50 of 6.85.

Molecule `NC1=Nc2cnc(Oc3ccccc3)cc2CN1[C@@H](CCC(=O)N1CCCC[C@H]1C(=O)O)C1CCCCC1` [Compound 91] has an inhibition at 0.3 µM [1] of 70% and a pIC50 of 6.47.

`CC(C)(C)CNCCC[C@@H](C1CCCCC1)N1Cc2cc(Oc3ccccc3)ncc2N=C1N` [Compound 161] gave an inhibition at 1 µM [1] of 94% and a pIC50 of 6.70.

`CC(C)(C)OC[C@@H](NC(=O)CC[C@@H](C1CCCCC1)N1Cc2cc(Oc3ccccc3)ncc2N=C1N)C(=O)N1CCOCC1` [Compound 103, 4-(2-Amino-6-phenoxy-4H-pyrido[3,4-d]pyrimidin-3-yl)-N-(1-(R)-tert-butoxymethyl-2-morpholin-4-yl-2-oxo-ethyl)-4-(S)-cyclohexyl-butyramide] showed an inhibition at 0.3 µM [1] of 96% and a pIC50 of 7.09.

`CC(C)[C@H](CCC(=O)N[C@@H](COC(C)(C)C)C(=O)O)N1Cc2cc(Oc3ccccc3)ncc2N=C1N` [Compound 70] was tested, and the inhibition at 0.3 µM [1] was 66% and the pIC50 was 6.59.

Molecule `CC(C)CN(CCN1CCOCC1)C(=O)CC[C@@H](C(C)C)N1Cc2cc(Oc3ccccc3)ncc2N=C1N` [Compound 190] has an inhibition at 1 µM [1] of 86% and a pIC50 of 6.72.

In the case of `NC1=Nc2cnc(Oc3ccccc3)cc2CN1[C@@H](CCCNCC1CC1)C1CCCCC1` [Compound 213], the inhibition at 1 µM [1] was 88% and the pIC50 was 6.62.

In the case of `CN(C(=O)CCCN1Cc2cc(Oc3ccccc3)ncc2N=C1N)C1CCCCC1` [Compound 196, 4-(2-Amino-6-phenoxy-4H-pyrido[3,4-d]pyrimidin-3-yl)-N-cyclohexyl-N-methyl-butyramide], the inhibition at 1 µM [1] was 34%.

For `CC(C)(C)OCCN(Cc1cncs1)C(=O)CC[C@@H](C1CCCCC1)N1Cc2cc(Oc3ccccc3)ncc2N=C1N` [Compound 159], the inhibition at 1 µM [1] was 102% and the pIC50 was 6.96.

In the case of `CC(CO)NC(=O)C(COC(C)(C)C)NC(=O)CCC(C1CCCCC1)N1Cc2cc(Oc3ccccc3)ncc2N=C1N` (stereo not drawn) [Compound 109], the inhibition at 0.3 µM [1] was 95% and the pIC50 was 6.92.

`CC(C)(C)OC[C@H](CO)NC(=O)CC[C@@H](C1CCCCC1)N1Cc2cc(Oc3ccccc3)ccc2N=C1N` [Compound 107, 4-(2-Amino-6-phenoxy-4H-quinazolin-3-yl)-N-(1-(S)-tert-butoxymethyl-2-hydroxy-ethyl)-4-(S)-cyclohexyl-butyramide] gave an inhibition at 0.3 µM [1] of 87%.

Work on `CC(C)(C)OC[C@H](CN)NC(=O)CC[C@@H](C1CCCCC1)N1Cc2cc(Oc3ccccc3)ncc2N=C1N` [Compound 168, N-(2-Amino-1-tert-butoxymethyl-ethyl)-4-(2-amino-6-phenoxy-4H-pyrido[3,4-d]pyrimidin-3-yl)-4-cyclohexyl-butyramide] yielded an inhibition at 1 µM [1] of 101%.

For `CN(C(=O)CC[C@@H](C1CCOCC1)N1Cc2cc(Oc3ccccc3)ncc2N=C1N)[C@@H](COCc1ccccc1)C(=O)O` [Compound 58], the inhibition at 0.3 µM [1] was 57% and the pIC50 was 6.57.

`CC(C)[C@H](COCCC1CCCCC1)N1Cc2cc(Oc3ccccc3)ncc2N=C1N` [Compound 232, 3-[1-(2-cyclohexyl-ethoxymethyl)-(R)-(2-methyl-propyl)]-6-phenoxy-3,4-dihydro-pyrido[3,4-d]pyrimidin-2-ylamine] gave an inhibition at 1 µM [1] of 99% and a pIC50 of 6.96.

`NC1=Nc2cnc(Oc3ccccc3)cc2CN1[C@@H](Cn1cc(C2CCCCC2)nn1)C1CCCCC1` [Compound 151] was tested, and the inhibition at 1 µM [1] was 98% and the pIC50 was 6.82.

Work on `CN(C(=O)CCC(C1CCCCC1)N1Cc2cc(Oc3ccccc3)ncc2N=C1N)C1CCS(=O)(=O)C1` (stereo not drawn) [Compound 170] yielded an inhibition at 1 µM [1] of 48% and a pIC50 of 6.08.

`NC1=Nc2cnc(Oc3ccccc3)cc2CN1[C@@H](CCC(=O)N1CCC(c2ccccc2)CC1)C1CCCCC1` [Compound 149] was tested, and the inhibition at 1 µM [1] was 66% and the pIC50 was 6.13.

With `CC(C)(C)CCNCC[C@@H](C1CCCCC1)N1Cc2cc(Oc3ccccc3)ncc2N=C1N` [Compound 216] the “% Inhibition @ 1.0 μM” value [1] was 95%, the inhibition at 1 µM [1] was 96% and the pIC50 was 7.06 and 6.92.

`C[C@@H](O)[C@H](CCC(=O)NCC(C)(C)C)N1Cc2cc(Oc3ccccc3)ncc2N=C1N` [Compound 186, 4-(S)-(2-Amino-6-phenoxy-4H-pyrido[3,4-d]pyrimidin-3-yl)-5-(R)-hydroxy-hexanoic acid (2,2-dimethyl-propyl)-amide] was tested, and the inhibition at 1 µM [1] was 81% and the pIC50 was 6.72.

In the case of `C[C@@H](O)[C@H](CCC(=O)N(C)C1CCCCC1)N1Cc2cc(Oc3ccccc3)ncc2N=C1N` [Compound 177], the inhibition at 1 µM [1] was 80% and the pIC50 was 6.49.

`CC(C)(C)OC[C@H](NC(=O)CC[C@@H](C1CCCCC1)N1Cc2cc(Oc3ccccc3)ncc2N=C1N)C(=O)O` [Compound 62] showed an inhibition at 0.3 µM [1] of 65% and a pIC50 of 6.60.

`Cn1ccnc1CN(C(=O)CC[C@@H](C1CCCCC1)N1Cc2cc(Oc3ccccc3)ncc2N=C1N)C1CCCCC1` [Compound 83] was tested, and the inhibition at 1 µM [1] was 99% and the pIC50 was 7.05.

`CC(C)CN(CCC[C@@H](C1CCCCC1)N1Cc2cc(Oc3ccccc3)ncc2N=C1N)CCN1CCOCC1` [Compound 192] showed an inhibition at 1 µM [1] of 101% and a pIC50 of 7.14.
